The structures appear in SMILES notation.

Experimental findings from ChEMBL document CHEMBL2331377, “Spirocyclic compounds, potent CCR1 antagonists” (Bioorg Med Chem Lett, 2013) are described below.

A short description of series [1]: Clearance in rat liver microsomes. Format: ADME, Microsome. Particulars: read-out: CLH.
Series [2] concerns the target T1, C-C chemokine receptor type 1 (Homo sapiens, UniProt P32246).
T1 sequence (P32246 whole entry): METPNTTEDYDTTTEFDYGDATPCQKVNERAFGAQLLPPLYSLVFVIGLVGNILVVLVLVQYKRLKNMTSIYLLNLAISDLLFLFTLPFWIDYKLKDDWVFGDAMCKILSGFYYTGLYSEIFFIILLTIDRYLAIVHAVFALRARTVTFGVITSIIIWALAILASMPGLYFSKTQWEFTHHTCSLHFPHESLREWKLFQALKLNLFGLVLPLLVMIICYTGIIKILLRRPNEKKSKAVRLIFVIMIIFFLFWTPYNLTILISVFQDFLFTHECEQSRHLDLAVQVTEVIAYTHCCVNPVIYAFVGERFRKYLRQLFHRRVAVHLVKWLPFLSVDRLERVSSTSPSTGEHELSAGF
Description: Displacement of [125I]MIP-1alpha from human recombinant CCR1 expressed in HEK293 cells after 1.5 hrs. Format: cell-based.

Series [3] can be described thus: in vitro. Particulars: rat, hepatocytes.
Series [4] is described as follows: in vitro. The conditions noted are these: human.
A short description of series [5]: in vitro. Particulars: human, Caco-2.
Series [6] can be described thus: in vitro. The conditions noted are these: human, hepatocytes.

With `CC(=O)Nc1ccc(O)cc1OC[C@@H](N)CN1CCC2(CC1)Cc1cc(Cl)ccc1O2`, the microsomal CLint (in series [1]; in the series “in vitro [4]” (liver microsomes)) was less than 10 µL/min/mg throughout. Besides, the IC50 in series [2] was 0.79 nM. Also, the hepatocyte CLint was 4.2 µL/min/1e6 cells in “in vitro [3]” and less than 3 µL/min/1e6 cells in “in vitro [6]”. Moreover, in “in vitro [5]”, the Papp was found to be 27 nm/s.

With `CC(=O)Nc1ccccc1OC[C@@H](O)CN1CCC2(CC1)Cc1cc(Cl)ccc1O2`, the IC50 in series [2] stood at 0.96 nM. For the same compound, the hepatocyte CLint came out at 26 µL/min/1e6 cells in “in vitro [3]” and 2.5 µL/min/1e6 cells in “in vitro [6]”. The same compound registered a microsomal CLint in “in vitro [4]” (liver microsomes) of less than 17 µL/min/mg. Also, in “in vitro [5]”, the Papp was found to be 260 nm/s.

For the compound `COc1ccc(NC(C)=O)c(OC[C@@H](N)CN2CCC3(CC2)Cc2cc(Cl)ccc2O3)c1`, the IC50 in series [2] stood at 6 nM. In “in vitro [4]” (liver microsomes), this compound gave a microsomal CLint of 12.6 µL/min/mg.

With `CC(=O)Nc1ccc(F)cc1OC[C@@H](O)CN1CCC2(CC1)Cc1cc(Cl)ccc1O2`, in series [2], the IC50 was found to be 0.64 nM. Also, the values for the hepatocyte CLint in the series “in vitro [3]” and in “in vitro [6]” were 17.5 µL/min/1e6 cells and 6.1 µL/min/1e6 cells, respectively. This compound returned a microsomal CLint in the series “in vitro [4]” (liver microsomes) of 13.5 µL/min/mg. The compound also registered a Papp in the series “in vitro [5]” of 170 nm/s.

On to `CC(=O)Nc1ccc(F)cc1OC[C@@H](O)CN1CCC2(CC1)Cc1cc(F)ccc1O2`, for which the values for the microsomal CLint (in series [1]; in the series “in vitro [4]” (liver microsomes)) were 29 µL/min/mg and 17.8 µL/min/mg, respectively. Besides, the IC50 in series [2] was determined as 0.36 nM. The figures for the hepatocyte CLint in “in vitro [3]” and in the series “in vitro [6]” were 12 µL/min/1e6 cells and 9.3 µL/min/1e6 cells, respectively. Besides, the Papp in “in vitro [5]” was found to be 180 nm/s.

With `COc1ccc(NC(C)=O)c(OC[C@@H](N)CN2CCC3(CC2)Cc2cc(F)ccc2O3)c1`, the IC50 in series [2] came out at 9 nM. In the series “in vitro [4]” (liver microsomes), this compound registered a microsomal CLint of 17.4 µL/min/mg. The compound also gave a hepatocyte CLint in the series “in vitro [6]” of 3.5 µL/min/1e6 cells.

On to `CC(=O)Nc1ccccc1OC[C@@H](O)CN1CCC2(CC1)Cc1cc(F)ccc1O2`, for which, in series [2], the IC50 came to 0.96 nM. In the series “in vitro [4]” (liver microsomes), this compound returned a microsomal CLint of 25.5 µL/min/mg. In addition, the apparent permeability coefficient (Papp) in the series “in vitro [5]” was found to be 165 nm/s. The same compound returned a hepatocyte CLint in the series “in vitro [6]” of 11 µL/min/1e6 cells.

Regarding `COc1ccc(NC(C)=O)c(OC[C@@H](N)CN2CCC3(CC2)Cc2ccccc2O3)c1`, the IC50 in series [2] turned out to be 32 nM. In addition, the microsomal CLint in the series “in vitro [4]” (liver microsomes) worked out at 18.8 µL/min/mg.

Regarding `COc1ccc(NC(C)=O)c(OC[C@@H](O)CN2CCC3(CC2)Cc2cc(Cl)ccc2O3)c1`, the IC50 in series [2] was 0.9 nM. In addition, the microsomal CLint in “in vitro [4]” (liver microsomes) amounted to 55 µL/min/mg. The compound further returned a Papp in the series “in vitro [5]” of 244 nm/s.

For the compound `CC(=O)Nc1ccc(O)cc1OC[C@@H](O)CN1CCC2(CC1)Cc1cc(Cl)ccc1O2`, the hepatocyte CLint in “in vitro [3]” was 25.7 µL/min/1e6 cells; in the series “in vitro [6]”, less than 3 µL/min/1e6 cells. The microsomal CLint in “in vitro [4]” (liver microsomes) is less than 10 µL/min/mg.

Consider `CC(=O)Nc1ccc(O)cc1OC[C@@H](O)CN1CCC2(CC1)Cc1cc(F)ccc1O2`, for which the results for the hepatocyte CLint in the series “in vitro [3]” and in “in vitro [6]” were 17.6 µL/min/1e6 cells and less than 3.6 µL/min/1e6 cells, respectively. Moreover, the microsomal CLint in “in vitro [4]” (microsomes) was less than 10 µL/min/mg. Besides, the Papp in the series “in vitro [5]” was 66 nm/s.

Regarding `CC(=O)Nc1ccc(O)cc1OC[C@@H](N)CN1CCC2(CC1)Cc1ccccc1O2`, the values for the microsomal CLint (in series [1]; in the series “in vitro [4]” (liver microsomes)) were 14 µL/min/mg and less than 10 µL/min/mg, respectively. Also, the IC50 in series [2] is 18 nM. Besides, the hepatocyte CLint in “in vitro [3]” is 6.6 µL/min/1e6 cells; in the series “in vitro [6]”, less than 3 µL/min/1e6 cells. The compound further displayed a Papp in the series “in vitro [5]” of 16 nm/s.

As for `CC(=O)Nc1ccc(O)cc1OC[C@@H](N)CN1CCC2(CC1)Cc1cc(F)ccc1O2`, the microsomal CLint (in series [1]; in “in vitro [4]” (liver microsomes)) was less than 10 µL/min/mg each time. In addition, the 50% inhibitory concentration (IC50) in series [2] stood at 1.4 nM. In addition, the hepatocyte CLint in the series “in vitro [3]” and in “in vitro [6]” was less than 3 µL/min/1e6 cells in each case. In addition, in the series “in vitro [5]”, the Papp was found to be 27 nm/s.
